According to article PMC11942905, “Identification of a Selective Inhibitor of Human NFS1, a Cysteine Desulfurase Involved in Fe-S Cluster Assembly, via Structure-Based Virtual Screening” (International Journal of Molecular Sciences, 2025):

Molecular target: T1, human cystathionine-β-synthase (CBS) (Homo sapiens, UniProt P35520)
T1 construct: made in house; host or cells: E. coli
T1 sequence (P35520 1-551): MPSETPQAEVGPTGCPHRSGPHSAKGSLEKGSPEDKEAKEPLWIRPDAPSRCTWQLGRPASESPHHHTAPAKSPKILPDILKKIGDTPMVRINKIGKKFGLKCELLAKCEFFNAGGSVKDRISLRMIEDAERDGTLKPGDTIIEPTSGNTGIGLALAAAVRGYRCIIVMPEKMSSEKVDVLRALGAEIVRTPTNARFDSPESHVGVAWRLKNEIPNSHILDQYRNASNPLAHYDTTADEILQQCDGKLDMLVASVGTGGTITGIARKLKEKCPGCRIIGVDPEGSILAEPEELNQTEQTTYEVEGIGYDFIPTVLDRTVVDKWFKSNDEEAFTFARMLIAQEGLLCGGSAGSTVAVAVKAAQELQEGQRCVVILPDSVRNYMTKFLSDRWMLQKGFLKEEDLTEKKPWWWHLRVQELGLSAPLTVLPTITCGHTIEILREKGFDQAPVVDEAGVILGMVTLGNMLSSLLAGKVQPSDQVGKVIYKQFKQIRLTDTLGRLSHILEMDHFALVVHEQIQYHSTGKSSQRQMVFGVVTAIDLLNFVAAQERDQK
Test: Selectivity assay, H2S-producing activity of CBS
Assay type: biochemical
Conditions: at 100 µM
Procedure: To evaluate the selectivity of Compounds 53 and 56, their effects on the activities of two other PLP-dependent enzymes, human cystathionine-β-synthase (CBS) and cystathionine-γ-lyase (CSE), were determined using a H2S-producing assay. Human CBS and CSE were expressed and purified in E. coli with a purity exceeding 90%, as confirmed by SDS-PAGE (Figures S4A and S5A). Subsequently, the H2S-producing activities of CBS and CSE were assessed in the presence of different concentrations of Compounds 53 and 56. A widely used CBS inhibitor, AOAA, and a specific CSE inhibitor, PAG, were used as positive controls (Figures S4B and S5B).
The H2S-producing activity of CBS was measured as previously described. The reaction mixture (200 μL) contained 50 mM of Hepes buffer (pH 7.4), 2 mM of homocysteine, 10 μM of PLP, 0.4 mM of lead nitrate, and 5 μg of CBS protein. It was preincubated at 37 °C for 3 min, and the reaction was initiated by the addition of 2 mM of cysteine. The reaction was monitored in a multifunctional microplate reader at 37 °C for 10 min. An extinction coefficient of 5500 M^−1 cm^−1 at 390 nm was used to calculate the lead sulfide concentration. The method used to determine CSE activity in the H2S-producing assay was identical to the CBS assay, except that 1 mM of cysteine was used as the sole substrate. […]

Question: How did the “inhibitory effect on CBS” value turn out when `COc1cc(/C=N/NC(=O)COc2ccc(Cl)cc2Cl)ccc1O` [Compound 53] was run?
Answer: no significant inhibitory effects
